Assay [1] addresses T1, USP2^CD (purified catalytic domain of USP2) (Homo sapiens, UniProt O75604).
T1 construct: The purified catalytic domain of USP2 (USP2^CD, in-house purified); His; made in house; host or cells: E. coli BL21 Gold
T1 sequence (O75604 267-599 limits assumed): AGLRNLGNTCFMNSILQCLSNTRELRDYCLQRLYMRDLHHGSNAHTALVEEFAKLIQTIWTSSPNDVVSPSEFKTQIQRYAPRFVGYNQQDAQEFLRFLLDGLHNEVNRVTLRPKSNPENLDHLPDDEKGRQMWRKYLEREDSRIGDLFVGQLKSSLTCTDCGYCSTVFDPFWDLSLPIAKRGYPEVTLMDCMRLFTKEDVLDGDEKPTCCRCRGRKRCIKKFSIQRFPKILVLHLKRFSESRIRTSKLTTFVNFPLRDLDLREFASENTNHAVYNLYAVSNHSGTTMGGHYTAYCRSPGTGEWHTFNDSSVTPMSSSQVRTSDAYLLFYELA
Nature of the assay: Inhibition of purified USP2^CD enzymatic activity (Ub-AMC or Ub-Rho substrate). The assay is classed as biochemical. Particulars: for inhibition at 0.01 µM: 0.01 μM compound; for inhibition at 0.05 µM: 0.05 μM compound; for inhibition at 0.1 µM: 0.1 μM compound; for inhibition at 0.5 µM: 0.5 μM compound; for inhibition at 1 µM: 1 μM compound; for inhibition at 5 µM: 5 μM compound; for inhibition at 10 µM: 10 μM compound; for inhibition at 25 µM: 25 μM compound; for inhibition at 50 µM: 50 μM compound; for IC50: Ub-AMC substrate at 1 μM, Table 2b, read-out: IC50 USP2 CD. The procedure: (§1) USP2CD or USP8CD were expressed in E. coli BL21 Gold. Cells were grown in LB Miller to mid-log phase and induced by addition of 0.5 mM IPTG for USP2CD for 5 h at 20° C., while 1 mM IPTG was added for USP8CD for 3 h at 37° C. Then, cells were harvested and frozen at −80° C.
For His-tagged USP2CD, cells were resuspended in buffer C (10 mM TRIS pH 8.0, 100 mM NaCl, 10 mM Imidazole) and lysed using a sonicator. The lysate was clarified by centrifugation and applied to Ni Sepharose6 Fast Flow resin (GE Healthcare). The resin was sequentially washed with buffer C, then with buffer C containing 50 mM Imidazole. Protein sample was eluted from the resin using buffer C containing 250 mM Imidazole. The eluted protein was buffer exchanged by gel-filtration on a Superdex 200 10/300 GL column (GE Healthcare) equilibrated in Buffer D (15 mM Bis-TRIS pH 6.0, 100 mM NaCl, 1 mM dithiothreitol (DTT)).
(§2) Enzymatic assay was performed in a HEPES buffer (50 mM pH7.6 1 mM DTT, 2% glycerol, 0.5 mM EDTA) or in a Tris buffer (40 mM pH7.4 1 mM DTT, 5% glycerol, 0.05 mg/ml BSA) respectively, following manufacturer's instructions. Compounds were added to the reaction mixture just prior to the substrate. The enzymatic reaction kinetics was monitored through the apparition of fluorescence due to the hydrolysis of the peptidyl Ub-AMC or Ub-Rho bound over 20 or 30 minutes.
(§3) Medium value out of duplicates is reported.

In assay [2] the target is T2, USP8^CD (purified catalytic domain of USP8) (Homo sapiens, UniProt P40818).
T2 construct: the purified catalytic domain of USP8 (USP8^CD, in-house purified); made in house; host or cells: E. coli BL21 Gold
T2 sequence (P40818 777-1109 limits assumed): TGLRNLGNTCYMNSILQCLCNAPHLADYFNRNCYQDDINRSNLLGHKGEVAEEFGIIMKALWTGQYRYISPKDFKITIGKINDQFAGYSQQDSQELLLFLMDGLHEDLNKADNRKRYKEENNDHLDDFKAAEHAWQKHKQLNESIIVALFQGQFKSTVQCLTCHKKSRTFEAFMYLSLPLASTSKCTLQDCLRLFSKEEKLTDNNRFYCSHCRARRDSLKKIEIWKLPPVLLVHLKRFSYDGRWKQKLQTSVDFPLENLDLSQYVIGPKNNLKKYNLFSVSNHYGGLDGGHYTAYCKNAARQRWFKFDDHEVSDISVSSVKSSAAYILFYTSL
Nature of the assay: Inhibition of purified USP8^CD enzymatic activity (Ub-AMC or Ub-Rho substrate). Type of assay: biochemical. Particulars: for inhibition at 0.01 µM: 0.01 μM compound; for inhibition at 0.05 µM: 0.05 μM compound; for inhibition at 0.1 µM: 0.1 μM compound; for inhibition at 0.5 µM: 0.5 μM compound; for inhibition at 1 µM: 1 μM compound; for inhibition at 5 µM: 5 μM compound; for inhibition at 10 µM: 10 μM compound; for inhibition at 25 µM: 25 μM compound; for inhibition at 50 µM: 50 μM compound; for IC50: read-out: IC50 USP8 CD. On the procedure: as §1
For His-tagged USP8CD, cells were resuspended in buffer A (50 mM TRIS pH 8.0, 500 mM NaCl, 2 mM Imidazole) and lysed using a sonicator. The lysate was clarified by centrifugation and applied to Ni Sepharose6 Fast Flow resin (GE Healthcare). The resin was sequentially washed first with buffer A containing 10 mM Imidazole then with buffer A containing 20 mM Imidazole, and finally with buffer A containing 50 mM Imidazole. Protein sample was eluted from the resin using buffer A containing 300 mM Imidazole. The eluted protein was buffer exchanged by gel-filtration on a Superdex 200 10/300 GL column (GE Healthcare) equilibrated in Buffer B (20 mM HEPES pH 7.5, 300 mM NaCl, 2 mM dithiothreitol (DTT)).
as §2, §3

Where [3] appears, read: Ub-AMC substrate at 1 μM, Table 2b.
The mark [4] stands for this setting: Ub-Rhodamine substrate at 0.1 μM, Table 2c.

Read-outs that look alike come from different tables or passages of the source.

As for `O=C1c2ccccc2C(=O)c2nc(CS(=O)(=O)c3cccc(F)c3)c(CS(=O)(=O)c3cccc(F)c3)nc21` [OVM13], in assay [1] (Table 1c), the inhibition at 0.01 µM was 9%, the inhibition at 0.05 µM was -20%, the inhibition at 0.1 µM is -32% and the inhibition at 0.5 µM is -3%. In assay [1] (Table 1c), the inhibition at 1 µM is -6%, the inhibition at 5 µM came to 10% and the inhibition at 10 µM came to 1%. For the same compound, in assay [1] (Table 1b), the inhibition at 1 µM was determined as 17%, the inhibition at 5 µM is 48%, the inhibition at 25 µM was 66% and the inhibition at 50 µM came to 41%. The IC50 in assay [1] was more than 10 µM. Also, in assay [2] (Table 1d), the inhibition at 0.01 µM is -22%, the inhibition at 0.05 µM is 3%, the inhibition at 0.1 µM was -9% and the inhibition at 0.5 µM was found to be 44%. Further, in assay [2] (Table 1d), the inhibition at 1 µM was 65%, the inhibition at 5 µM came to 76% and the inhibition at 10 µM stood at 35%. Further, in assay [2] (Table 1b), the inhibition at 1 µM was found to be 60%, the inhibition at 5 µM came out at 88%, the inhibition at 25 µM turned out to be 102% and the inhibition at 50 µM was 94%. Also, the IC50 in assay [2] (setting [3]) worked out at 0.4 µM. Also, in assay [2] (setting [4]), the IC50 stood at 0.4 µM.
On to `O=C1c2ccccc2C(=O)c2nc(CS(=O)(=O)c3cccc(Cl)c3)c(CS(=O)(=O)c3cccc(Cl)c3)nc21` [OVM15], for which, in assay [1] (Table 1c), the inhibition at 0.01 µM was 19%, the inhibition at 0.05 µM worked out at 3%, the inhibition at 0.1 µM came out at 3% and the inhibition at 0.5 µM came out at 23%. In addition, in assay [1] (Table 1c), the inhibition at 1 µM came to 37%, the inhibition at 5 µM was -10% and the inhibition at 10 µM was found to be 17%. Moreover, in assay [1] (Table 1b), the inhibition at 1 µM stood at 0%, the inhibition at 5 µM turned out to be 1%, the inhibition at 25 µM is 16% and the inhibition at 50 µM is 30%. Also, in assay [1], the IC50 was more than 10 µM. Besides, in assay [2] (Table 1d), the inhibition at 0.01 µM turned out to be 24%, the inhibition at 0.05 µM amounted to 16%, the inhibition at 0.1 µM was found to be 14% and the inhibition at 0.5 µM was determined as 18%. For the same compound, in assay [2] (Table 1d), the inhibition at 1 µM stood at 64%, the inhibition at 5 µM was determined as 52% and the inhibition at 10 µM was 51%. Also, in assay [2] (Table 1b), the inhibition at 1 µM turned out to be 68%, the inhibition at 5 µM turned out to be 51%, the inhibition at 25 µM is 70% and the inhibition at 50 µM came to 83%. In addition, the 50% inhibitory concentration (IC50) in assay [2] (setting [3]) is 0.4 µM. Also, in assay [2] (setting [4]), the half-maximal inhibitory concentration (IC50) came to 0.4 µM.
As to `O=C1c2ccccc2C(=O)c2nc(CS(=O)(=O)c3ccc(Br)s3)c(CS(=O)(=O)c3ccc(Br)s3)nc21` [OVM16], in assay [1] (Table 1b), the inhibition at 1 µM was determined as 1%, the inhibition at 5 µM came out at 26%, the inhibition at 25 µM was 42% and the inhibition at 50 µM came out at 80%. Further, in assay [2] (Table 1b), the inhibition at 1 µM amounted to 10%, the inhibition at 5 µM was 56%, the inhibition at 25 µM was determined as 92% and the inhibition at 50 µM worked out at 104%.
For the compound `O=C1c2ccccc2C(=O)c2nc(CS(=O)(=O)c3cccc(C(F)(F)F)c3)c(CS(=O)(=O)c3cccc(C(F)(F)F)c3)nc21` [OVM17], in assay [1] (Table 1b), the inhibition at 1 µM was -11%, the inhibition at 5 µM came out at 9%, the inhibition at 25 µM was 27% and the inhibition at 50 µM is 25%. Moreover, in assay [2] (Table 1b), the inhibition at 1 µM worked out at 25%, the inhibition at 5 µM amounted to 33%, the inhibition at 25 µM came out at 68% and the inhibition at 50 µM was determined as 85%.
Turning to `O=C1c2ccccc2C(=O)c2nc(CS(=O)(=O)c3ccc4c(c3)OCCO4)c(CS(=O)(=O)c3ccc4c(c3)OCCO4)nc21` [OVM19], in assay [1] (Table 1c), the inhibition at 0.01 µM was -19%, the inhibition at 0.05 µM was -14%, the inhibition at 0.1 µM amounted to 13% and the inhibition at 0.5 µM is -1%. In assay [1] (Table 1c), the inhibition at 1 µM was 9%, the inhibition at 5 µM was -3% and the inhibition at 10 µM stood at 11%. In assay [1] (Table 1b), the inhibition at 1 µM is 20%, the inhibition at 5 µM turned out to be 25%, the inhibition at 25 µM was determined as 21% and the inhibition at 50 µM is 18%. Further, in assay [1], the half-maximal inhibitory concentration (IC50) was more than 10 µM. Also, in assay [2] (Table 1d), the inhibition at 0.01 µM was -22%, the inhibition at 0.05 µM is -5%, the inhibition at 0.1 µM was -9% and the inhibition at 0.5 µM was 17%. Besides, in assay [2] (Table 1d), the inhibition at 1 µM worked out at 44%, the inhibition at 5 µM amounted to 46% and the inhibition at 10 µM was 54%. In assay [2] (Table 1b), the inhibition at 1 µM stood at 53%, the inhibition at 5 µM is 61%, the inhibition at 25 µM was found to be 76% and the inhibition at 50 µM was 77%. In addition, the IC50 in assay [2] (setting [3]) is 7.5 µM.
Consider `O=C1c2ccccc2C(=O)c2nc(CS(=O)(=O)c3ccc(F)c(F)c3F)c(CS(=O)(=O)c3ccc(F)c(F)c3F)nc21` [OVM23], for which, in assay [1] (Table 1c), the inhibition at 0.01 µM was -20%, the inhibition at 0.05 µM was -26%, the inhibition at 0.1 µM was -22% and the inhibition at 0.5 µM was found to be 16%. Moreover, in assay [1] (Table 1c), the inhibition at 1 µM amounted to 18%, the inhibition at 5 µM was -1% and the inhibition at 10 µM worked out at 4%. In addition, in assay [1] (Table 1b), the inhibition at 1 µM was 69%, the inhibition at 5 µM was 53%, the inhibition at 25 µM is 94% and the inhibition at 50 µM came to 97%. Further, in assay [1], the IC50 is more than 10 µM. Besides, in assay [2] (Table 1d), the inhibition at 0.01 µM was -5%, the inhibition at 0.05 µM came to 12%, the inhibition at 0.1 µM was 24% and the inhibition at 0.5 µM came out at 20%. Moreover, in assay [2] (Table 1d), the inhibition at 1 µM came out at 34%, the inhibition at 5 µM is 74% and the inhibition at 10 µM turned out to be 80%. Besides, in assay [2] (Table 1b), the inhibition at 1 µM turned out to be 83%, the inhibition at 5 µM worked out at 92%, the inhibition at 25 µM came to 100% and the inhibition at 50 µM was found to be 103%. Moreover, the IC50 in assay [2] (setting [3]) amounted to 2.2 µM.

One may read the inhibition as the change of the read-out against control, counted positive when it falls. In general, IC50 refers to the concentration at which inhibition is half-maximal.

(Values after US11306063B2, “Heterocyclic naphthoquinones derivatives for use in the treatment of cancers including Cushing disease” (Commissariat a l'Energie Atomique et aux Energies …, priority 2016, dated 2022).)
